In US8415469B2, “Compounds and methods for kinase modulation, and indications therefor” (Plexxikon Inc., priority 2005, dated 2013):

Assays:
Format in all cases: biochemical
[1] = target: T1, Flt1 (Homo sapiens, UniProt P17948); assay: AlphaScreen kinase assay, Flt1; details: read-out: IC50, activity toward kinase Flt1
T1 construct: P1826.pETN6 BI-PTP FLT1 M799-D1165-X WT; His6 (N); made in house; host or cells: E. coli (PTP1B co-expressed)
T1 sequence (P17948 with tags, fused parts or gaps): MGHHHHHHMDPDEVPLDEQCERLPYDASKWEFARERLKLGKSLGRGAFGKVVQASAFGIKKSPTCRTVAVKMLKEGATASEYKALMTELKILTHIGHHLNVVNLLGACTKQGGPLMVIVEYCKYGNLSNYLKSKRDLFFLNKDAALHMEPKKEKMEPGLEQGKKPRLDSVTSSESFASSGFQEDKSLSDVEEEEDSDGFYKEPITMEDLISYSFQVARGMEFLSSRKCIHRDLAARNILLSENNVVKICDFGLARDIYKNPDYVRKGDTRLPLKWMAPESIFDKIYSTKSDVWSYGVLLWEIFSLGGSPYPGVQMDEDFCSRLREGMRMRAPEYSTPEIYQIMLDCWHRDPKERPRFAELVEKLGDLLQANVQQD

[2] = target: T2, Pyk2 (Homo sapiens, UniProt Q14289); assay: AlphaScreen kinase assay, Pyk2; details: read-out: IC50, activity toward kinase Pyk2
T2 construct: purchased Upstate Biotechnology

[3] = target: T3, c-Raf-1 (Homo sapiens, UniProt P04049); assay: AlphaScreen kinase assay, c-Raf-1; details: read-out: IC50, activity toward kinase c-Raf-1
T3 construct: purchased Upstate Biotechnology

[4] = target: T4, B-Raf V600E (Homo sapiens, UniProt P15056, V600E); assay: AlphaScreen kinase assay, B-Raf V600E; details: read-out: IC50, activity toward kinase B-Raf V600E
T4 construct: P4254. pFastBacBD-CDC37 BRAF D437-K722-X, V600E; His6 with pFastBac HT leader (TEV site) (N); made in house; host or cells: Sf9 (baculovirus; chaperone CDC37 co-expressed)

[5] = target: T5, B-Raf (Homo sapiens, UniProt P15056); assay: AlphaScreen kinase assay, B-Raf; details: read-out: IC50, activity toward kinase B-Raf
T5 construct: purchased Upstate Biotechnology

[6] = target: T6, Kit (Homo sapiens, UniProt P10721); assay: AlphaScreen kinase assay, Kit; details: read-out: IC50, activity toward kinase Kit
T6 construct: P1332.N6 BI PTP KIT M552-K948-X COD; His6 (N); made in house; host or cells: E. coli (PTP1B co-expressed)

[7] = target: T7, FGFR1 (Homo sapiens, UniProt P11362, C488A/C584S); assay: AlphaScreen kinase assay, FGFR1; details: read-out: IC50, activity toward kinase FGFR
T7 construct: P1351.pET N6 BI-PTP FGFR A458-E765-X C488A, C584S; made in house; host or cells: E. coli (PTP1B co-expressed)

[8] = target: T8, Fms (Homo sapiens, UniProt P07333); assay: AlphaScreen kinase assay, Fms; details: read-out: IC50, activity toward kinase Fms
T8 construct: purchased Upstate Biotechnology

[9] = target: T9, Ret (Homo sapiens, UniProt P07949); assay: AlphaScreen kinase assay, Ret; details: read-out: IC50, activity toward kinase Ret
T9 construct: P1378.pET-SF BI-PTP RET H661-R1012 HIS; made in house
T9 sequence (P07949 with tags, fused parts or gaps): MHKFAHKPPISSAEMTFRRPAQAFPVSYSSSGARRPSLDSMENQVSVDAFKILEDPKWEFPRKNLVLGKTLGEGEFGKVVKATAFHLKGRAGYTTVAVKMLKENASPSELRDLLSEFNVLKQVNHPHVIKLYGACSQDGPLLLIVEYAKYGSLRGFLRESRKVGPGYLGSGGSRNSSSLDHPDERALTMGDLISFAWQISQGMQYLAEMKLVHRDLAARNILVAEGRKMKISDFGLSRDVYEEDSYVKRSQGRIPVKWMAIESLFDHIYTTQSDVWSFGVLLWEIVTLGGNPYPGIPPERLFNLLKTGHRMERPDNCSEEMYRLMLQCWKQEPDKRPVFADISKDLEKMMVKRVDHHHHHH

T7 sequence (P11362 458-765 C488A/C584S): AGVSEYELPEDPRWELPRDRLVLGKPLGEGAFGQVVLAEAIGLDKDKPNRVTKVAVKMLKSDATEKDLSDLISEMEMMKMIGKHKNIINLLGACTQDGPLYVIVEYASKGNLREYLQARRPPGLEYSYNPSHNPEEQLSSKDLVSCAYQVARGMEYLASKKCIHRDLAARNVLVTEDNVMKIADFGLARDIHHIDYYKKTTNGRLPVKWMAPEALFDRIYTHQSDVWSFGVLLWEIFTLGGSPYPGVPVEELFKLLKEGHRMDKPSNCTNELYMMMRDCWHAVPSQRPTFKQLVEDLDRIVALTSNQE
T6 sequence (P10721 with tags, fused parts or gaps): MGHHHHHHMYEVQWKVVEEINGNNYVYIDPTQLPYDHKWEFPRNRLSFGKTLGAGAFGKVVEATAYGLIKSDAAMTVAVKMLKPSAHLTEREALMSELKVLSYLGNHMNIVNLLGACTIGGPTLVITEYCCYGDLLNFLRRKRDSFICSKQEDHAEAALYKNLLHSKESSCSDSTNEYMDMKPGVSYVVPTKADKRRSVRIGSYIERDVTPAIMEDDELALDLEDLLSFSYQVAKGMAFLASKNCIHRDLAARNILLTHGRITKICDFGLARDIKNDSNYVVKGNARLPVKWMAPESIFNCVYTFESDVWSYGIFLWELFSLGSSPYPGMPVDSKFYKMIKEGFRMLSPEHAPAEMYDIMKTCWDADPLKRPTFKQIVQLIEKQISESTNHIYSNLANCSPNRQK
T5 sequence (P15056 whole entry): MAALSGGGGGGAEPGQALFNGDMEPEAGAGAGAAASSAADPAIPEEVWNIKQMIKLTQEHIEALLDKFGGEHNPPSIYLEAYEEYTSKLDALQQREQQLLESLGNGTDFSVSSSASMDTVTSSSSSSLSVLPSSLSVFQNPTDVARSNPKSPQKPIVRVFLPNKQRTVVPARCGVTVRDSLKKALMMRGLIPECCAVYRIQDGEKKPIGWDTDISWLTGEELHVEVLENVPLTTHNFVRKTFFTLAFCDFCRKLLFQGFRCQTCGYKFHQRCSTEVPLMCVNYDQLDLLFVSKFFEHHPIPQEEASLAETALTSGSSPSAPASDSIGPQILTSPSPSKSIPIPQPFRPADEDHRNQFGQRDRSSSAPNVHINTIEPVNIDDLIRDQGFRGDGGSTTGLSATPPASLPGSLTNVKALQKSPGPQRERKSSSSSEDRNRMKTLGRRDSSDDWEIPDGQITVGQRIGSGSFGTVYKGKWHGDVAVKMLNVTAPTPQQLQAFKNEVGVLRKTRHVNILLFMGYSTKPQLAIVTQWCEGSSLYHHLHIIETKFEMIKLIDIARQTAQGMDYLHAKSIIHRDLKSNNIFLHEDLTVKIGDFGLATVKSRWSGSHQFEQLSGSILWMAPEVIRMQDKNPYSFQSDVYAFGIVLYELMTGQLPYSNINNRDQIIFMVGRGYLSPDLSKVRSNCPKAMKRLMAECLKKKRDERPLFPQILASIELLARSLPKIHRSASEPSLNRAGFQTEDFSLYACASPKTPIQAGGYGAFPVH
T4 sequence (P15056 with tags, fused parts or gaps V600E): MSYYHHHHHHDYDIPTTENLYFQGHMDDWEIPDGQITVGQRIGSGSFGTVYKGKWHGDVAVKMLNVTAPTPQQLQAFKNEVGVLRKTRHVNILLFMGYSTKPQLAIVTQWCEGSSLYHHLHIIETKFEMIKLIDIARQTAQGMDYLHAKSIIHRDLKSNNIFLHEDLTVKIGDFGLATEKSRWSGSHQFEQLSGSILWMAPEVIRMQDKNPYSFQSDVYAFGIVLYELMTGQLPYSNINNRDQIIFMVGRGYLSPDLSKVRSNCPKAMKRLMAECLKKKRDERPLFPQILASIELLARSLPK
T8 sequence (P07333 20-972): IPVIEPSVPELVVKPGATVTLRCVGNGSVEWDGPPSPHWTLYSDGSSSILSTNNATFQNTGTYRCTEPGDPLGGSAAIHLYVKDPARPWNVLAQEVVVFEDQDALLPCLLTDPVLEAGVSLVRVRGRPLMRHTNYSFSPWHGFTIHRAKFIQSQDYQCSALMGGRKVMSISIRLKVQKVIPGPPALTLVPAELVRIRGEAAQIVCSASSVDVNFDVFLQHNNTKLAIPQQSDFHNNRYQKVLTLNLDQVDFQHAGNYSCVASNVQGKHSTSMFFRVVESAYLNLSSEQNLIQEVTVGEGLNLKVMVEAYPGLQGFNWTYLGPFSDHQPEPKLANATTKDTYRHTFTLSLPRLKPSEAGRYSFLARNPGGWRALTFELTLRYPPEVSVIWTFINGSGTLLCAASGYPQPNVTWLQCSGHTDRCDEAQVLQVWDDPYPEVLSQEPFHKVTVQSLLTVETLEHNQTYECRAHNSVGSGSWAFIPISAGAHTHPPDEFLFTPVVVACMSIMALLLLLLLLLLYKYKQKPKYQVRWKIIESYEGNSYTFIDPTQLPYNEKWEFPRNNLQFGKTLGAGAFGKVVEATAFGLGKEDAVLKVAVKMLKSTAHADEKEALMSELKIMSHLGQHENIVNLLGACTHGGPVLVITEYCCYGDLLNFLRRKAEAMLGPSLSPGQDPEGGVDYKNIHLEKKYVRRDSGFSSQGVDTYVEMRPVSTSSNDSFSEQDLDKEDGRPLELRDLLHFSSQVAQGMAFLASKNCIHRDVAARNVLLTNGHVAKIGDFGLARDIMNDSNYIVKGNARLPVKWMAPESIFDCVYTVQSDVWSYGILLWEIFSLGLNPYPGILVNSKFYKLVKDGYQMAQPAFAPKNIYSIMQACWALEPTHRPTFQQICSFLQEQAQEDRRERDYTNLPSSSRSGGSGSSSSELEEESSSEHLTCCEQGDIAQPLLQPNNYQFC
T3 sequence (P04049 whole entry): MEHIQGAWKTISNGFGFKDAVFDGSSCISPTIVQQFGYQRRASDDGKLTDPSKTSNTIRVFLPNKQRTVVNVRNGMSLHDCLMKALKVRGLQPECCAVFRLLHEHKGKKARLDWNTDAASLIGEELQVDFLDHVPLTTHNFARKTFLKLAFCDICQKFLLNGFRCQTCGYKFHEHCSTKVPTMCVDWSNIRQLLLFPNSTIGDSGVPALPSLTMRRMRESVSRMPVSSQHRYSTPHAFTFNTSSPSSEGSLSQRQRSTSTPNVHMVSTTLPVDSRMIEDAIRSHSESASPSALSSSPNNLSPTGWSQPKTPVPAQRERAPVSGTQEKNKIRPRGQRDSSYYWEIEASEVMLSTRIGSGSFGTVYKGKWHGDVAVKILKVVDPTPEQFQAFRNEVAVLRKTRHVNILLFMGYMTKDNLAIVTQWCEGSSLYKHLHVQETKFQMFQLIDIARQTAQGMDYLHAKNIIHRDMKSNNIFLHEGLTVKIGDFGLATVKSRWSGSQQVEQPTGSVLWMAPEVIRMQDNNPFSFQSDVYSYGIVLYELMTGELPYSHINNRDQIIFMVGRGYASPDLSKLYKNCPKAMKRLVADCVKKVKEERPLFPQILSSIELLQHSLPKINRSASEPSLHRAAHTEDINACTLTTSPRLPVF
T2 sequence (Q14289 whole entry): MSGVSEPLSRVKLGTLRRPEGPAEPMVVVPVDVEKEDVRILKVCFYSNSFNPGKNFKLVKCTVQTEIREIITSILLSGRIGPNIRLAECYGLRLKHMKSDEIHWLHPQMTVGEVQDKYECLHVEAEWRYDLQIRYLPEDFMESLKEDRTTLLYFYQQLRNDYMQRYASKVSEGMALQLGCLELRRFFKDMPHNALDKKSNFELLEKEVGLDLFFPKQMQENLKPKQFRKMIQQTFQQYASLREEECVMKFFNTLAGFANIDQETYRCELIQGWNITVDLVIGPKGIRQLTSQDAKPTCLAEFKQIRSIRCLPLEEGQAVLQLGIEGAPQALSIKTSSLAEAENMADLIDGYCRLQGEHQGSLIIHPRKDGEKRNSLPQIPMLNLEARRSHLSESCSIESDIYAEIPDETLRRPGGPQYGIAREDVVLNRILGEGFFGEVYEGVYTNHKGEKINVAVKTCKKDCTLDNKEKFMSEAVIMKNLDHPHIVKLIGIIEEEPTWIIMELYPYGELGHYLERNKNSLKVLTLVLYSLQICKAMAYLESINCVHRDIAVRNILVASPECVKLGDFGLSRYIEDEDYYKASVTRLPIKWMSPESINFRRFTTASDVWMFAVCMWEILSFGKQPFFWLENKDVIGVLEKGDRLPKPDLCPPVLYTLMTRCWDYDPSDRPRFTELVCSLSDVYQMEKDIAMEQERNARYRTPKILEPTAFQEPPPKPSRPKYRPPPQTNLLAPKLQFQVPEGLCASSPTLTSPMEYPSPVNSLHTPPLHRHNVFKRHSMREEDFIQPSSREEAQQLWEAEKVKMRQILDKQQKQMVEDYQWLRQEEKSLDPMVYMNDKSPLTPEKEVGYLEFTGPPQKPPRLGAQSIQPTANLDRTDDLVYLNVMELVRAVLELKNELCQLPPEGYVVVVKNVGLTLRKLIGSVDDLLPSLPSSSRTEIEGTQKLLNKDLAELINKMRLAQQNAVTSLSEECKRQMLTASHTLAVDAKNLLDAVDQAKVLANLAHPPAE

SMILES | IC50 [1] | IC50 [2] | IC50 [3] | IC50 [4] | IC50 [5] | IC50 [6] | IC50 [7] | IC50 [8] | IC50 [9]
CCCS(=O)(=O)Nc1ccc(F)c(Cc2c[nH]c3ncc(N4CCOCC4)cc23)c1F [Compound P-0964, Propane-1-sulfonic acid [2,4-difluoro-3-(5-morpholin-4-yl-1H-pyrrolo[2,3-b]pyridin-3-ylmethyl)-phenyl]-amide] |  | ≤ 10 µM | ≤ 10 µM | ≤ 10 µM |  | ≤ 10 µM | ≤ 10 µM |  | 
OC(c1ccccc1OCc1ccccc1)c1c[nH]c2ncc(Br)cc12 (stereo not drawn) [Compound P-1380] |  | ≤ 10 µM |  |  |  | ≤ 10 µM | ≤ 10 µM | ≤ 10 µM | 
CCCC(=O)Nc1ccc(F)c(C(OC)c2c[nH]c3ncc(OC)cc23)c1F (stereo not drawn) [Compound P-1368] |  | ≤ 10 µM |  | ≤ 10 µM |  | ≤ 10 µM |  | ≤ 10 µM | 
CCCS(=O)(=O)Nc1ccc(F)c(C(=O)c2c[nH]c3ncc(-c4ccc(C(F)(F)F)cc4)cc23)c1F [Compound P-0912, Propane-1-sulfonic acid {2,4-difluoro-3-[5-(4-trifluoromethyl-phenyl)-1H-pyrrolo[2,3-b]pyridine-3-carbonyl]-phenyl}-amide] |  | ≤ 10 µM | ≤ 10 µM | ≤ 10 µM | ≤ 10 µM |  | ≤ 10 µM |  | 
COC(c1c(F)ccc(NS(=O)(=O)C(C)C)c1F)c1c[nH]c2ncc(Br)cc12 (stereo not drawn) [Compound P-0356, Propane-2-sulfonic acid {3-[(5-bromo-1H-pyrrolo[2,3-b]pyridin-3-yl)-methoxy-methyl]-2,4-difluoro-phenyl}-amide] |  | ≤ 10 µM | ≤ 10 µM | ≤ 10 µM | ≤ 10 µM |  |  |  | 
c1ccc(N2CCOCC2)c(Nc2ccc3cc[nH]c3n2)c1 [Compound P-1377, (2-Morpholin-4-yl-phenyl)-(1H-pyrrolo[2,3-b]pyridin-6-yl)-amine] |  | ≤ 10 µM |  |  |  |  | ≤ 10 µM |  | 
CCCC(=O)Nc1ccc(F)c(C(O)c2c[nH]c3ncc(OC)cc23)c1F (stereo not drawn) [Compound P-1367] |  | ≤ 10 µM |  |  |  | ≤ 10 µM | ≤ 10 µM |  | 
Brc1cnc2[nH]cc(Cc3ccccc3OCc3ccccc3)c2c1 [Compound P-1379] |  | ≤ 10 µM |  |  |  |  |  |  | 

Continued, values first:

IC50 [1] | IC50 [2] | IC50 [3] | IC50 [4] | IC50 [5] | IC50 [6] | IC50 [7] | IC50 [8] | IC50 [9] | SMILES
≤ 10 µM | ≤ 10 µM |  |  |  |  |  |  |  | Clc1cccc(Nc2ccc3cc[nH]c3n2)c1 [Compound P-1373, (3-Chloro-phenyl)-(1H-pyrrolo[2,3-b]pyridin-6-yl)-amine]
 | ≤ 10 µM | ≤ 10 µM | ≤ 10 µM | ≤ 10 µM |  |  |  |  | CCCS(=O)(=O)Nc1ccc(F)c(C(O)c2c[nH]c3ncc(Nc4ccccc4)cc23)c1F (stereo not drawn) [Compound P-0928]
 | ≤ 10 µM |  |  |  |  |  |  | ≤ 10 µM | CC(=O)c1cccc(-c2ccnc3[nH]ccc23)c1 [Compound P-0116]
 | ≤ 10 µM | ≤ 10 µM | ≤ 10 µM | ≤ 10 µM |  |  |  |  | CCCS(=O)(=O)Nc1ccc(F)c(C(O)c2c[nH]c3ncc(-c4ccccc4)cc23)c1F (stereo not drawn) [Compound P-0946]
 | ≤ 10 µM | ≤ 10 µM | ≤ 10 µM |  |  |  |  |  | CCCS(=O)(=O)Nc1ccc(F)c(C(OC)c2c[nH]c3ncc(-c4ccccc4)cc23)c1F (stereo not drawn) [Compound P-0957]
 | ≤ 10 µM |  | ≤ 10 µM |  |  |  |  |  | CC(=O)Nc1ccc(F)c(C(O)c2c[nH]c3ncc(-c4cccnc4)cc23)c1F (stereo not drawn) [Compound P-1069]
 | ≤ 10 µM |  |  |  | ≤ 10 µM |  | ≤ 10 µM |  | Cc1cc(Nc2ccc3cc[nH]c3n2)no1 [Compound P-1376, (5-Methyl-isoxazol-3-yl)-(1H-pyrrolo[2,3-b]pyridin-6-yl)-amine]
 | ≤ 10 µM | ≤ 10 µM | ≤ 10 µM | ≤ 10 µM |  | ≤ 10 µM |  |  | COC(c1c(F)ccc(NS(=O)(=O)C(C)C)c1F)c1c[nH]c2ncc(-c3cccnc3)cc12 (stereo not drawn) [Compound P-0947, Propane-2-sulfonic acid {2,4-difluoro-3-[methoxy-(5-pyridin-3-yl-1H-pyrrolo[2,3-b]pyridin-3-yl)-methyl]-phenyl}-amide]
 | ≤ 10 µM |  | ≤ 10 µM |  |  | ≤ 10 µM | ≤ 10 µM |  | NC(=O)c1cccc(-c2cnc3[nH]cc(Cc4ccccc4OCc4ccccc4)c3c2)c1 [Compound P-1381]
